# Changes are numbered by the printed parent chain.
# Legend:
# PR LBD = biological target: T1, PR LBD (Homo sapiens, UniProt P06401); assay: Fluorescence polarization competition binding, PR LBD
# T1 sequence (P06401 679-913 limits assumed): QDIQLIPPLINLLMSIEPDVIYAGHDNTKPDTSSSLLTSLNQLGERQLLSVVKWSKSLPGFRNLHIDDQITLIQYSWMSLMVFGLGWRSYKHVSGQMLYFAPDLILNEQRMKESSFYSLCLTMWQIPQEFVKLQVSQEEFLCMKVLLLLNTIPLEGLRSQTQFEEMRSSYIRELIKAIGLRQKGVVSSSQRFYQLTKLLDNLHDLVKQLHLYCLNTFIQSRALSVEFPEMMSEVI
# [1] = biological target: T2, full-length AR and AR-V567es (Homo sapiens, UniProt P10275); assay: Probasin luciferase activity in LNCaP cells, full-length AR and AR-V567es; conditions: I-EPI-002 2 μM, enzalutamide 5 μM; presence or absence of androgen
# T2 sequence (P10275 1-920): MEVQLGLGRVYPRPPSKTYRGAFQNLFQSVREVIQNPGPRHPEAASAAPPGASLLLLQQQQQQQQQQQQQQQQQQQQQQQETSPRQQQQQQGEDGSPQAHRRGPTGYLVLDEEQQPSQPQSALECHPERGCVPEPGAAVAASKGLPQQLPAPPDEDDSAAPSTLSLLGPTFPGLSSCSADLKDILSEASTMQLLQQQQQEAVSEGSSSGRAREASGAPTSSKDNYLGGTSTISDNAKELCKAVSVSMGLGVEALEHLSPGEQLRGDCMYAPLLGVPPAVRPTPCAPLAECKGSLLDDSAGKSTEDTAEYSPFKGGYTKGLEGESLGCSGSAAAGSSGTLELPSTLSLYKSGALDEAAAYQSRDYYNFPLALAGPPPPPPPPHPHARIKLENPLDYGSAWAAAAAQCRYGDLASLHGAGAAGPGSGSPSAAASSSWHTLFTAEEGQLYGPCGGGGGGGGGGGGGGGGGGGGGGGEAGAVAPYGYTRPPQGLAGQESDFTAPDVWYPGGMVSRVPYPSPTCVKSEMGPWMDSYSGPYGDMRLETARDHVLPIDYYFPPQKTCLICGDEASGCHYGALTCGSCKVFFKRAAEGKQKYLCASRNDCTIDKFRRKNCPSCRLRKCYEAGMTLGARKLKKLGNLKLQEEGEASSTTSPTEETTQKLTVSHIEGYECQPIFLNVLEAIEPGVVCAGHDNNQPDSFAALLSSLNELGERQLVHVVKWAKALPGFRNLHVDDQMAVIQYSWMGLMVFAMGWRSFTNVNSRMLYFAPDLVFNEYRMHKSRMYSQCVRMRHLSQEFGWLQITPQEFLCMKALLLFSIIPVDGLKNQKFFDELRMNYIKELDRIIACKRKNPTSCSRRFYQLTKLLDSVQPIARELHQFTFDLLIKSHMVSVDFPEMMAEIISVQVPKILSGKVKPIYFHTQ
# T2 sequence (P10275 with tags, fused parts or gaps limits assumed): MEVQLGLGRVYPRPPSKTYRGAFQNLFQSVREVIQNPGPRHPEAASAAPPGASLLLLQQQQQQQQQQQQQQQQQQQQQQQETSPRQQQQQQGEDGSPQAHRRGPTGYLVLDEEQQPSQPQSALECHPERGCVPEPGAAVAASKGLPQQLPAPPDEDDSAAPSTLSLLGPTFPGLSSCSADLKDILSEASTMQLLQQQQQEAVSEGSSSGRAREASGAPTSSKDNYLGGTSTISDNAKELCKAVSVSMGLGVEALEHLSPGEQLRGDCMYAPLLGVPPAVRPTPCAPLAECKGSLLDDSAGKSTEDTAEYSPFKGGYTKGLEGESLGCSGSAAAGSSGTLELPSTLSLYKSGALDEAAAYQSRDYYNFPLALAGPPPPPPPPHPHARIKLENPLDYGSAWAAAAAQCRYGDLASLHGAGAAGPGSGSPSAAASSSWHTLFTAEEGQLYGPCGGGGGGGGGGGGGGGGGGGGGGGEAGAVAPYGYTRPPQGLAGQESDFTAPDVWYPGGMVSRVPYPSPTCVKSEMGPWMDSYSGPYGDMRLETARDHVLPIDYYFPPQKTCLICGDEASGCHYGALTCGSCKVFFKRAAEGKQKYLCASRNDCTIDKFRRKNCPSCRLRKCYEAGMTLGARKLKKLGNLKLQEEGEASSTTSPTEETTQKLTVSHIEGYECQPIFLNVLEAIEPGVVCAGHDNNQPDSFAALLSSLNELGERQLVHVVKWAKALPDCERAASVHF
# [2] = biological target: T3, endogenous full-length AR (Homo sapiens, UniProt P10275, T878A); assay: AR transcriptional activity, PSA
# T3 sequence (P10275 1-920 T878A): T2 sequence (P10275 1-920) with T878A
substance,measurement,setting,value
15-IodoEPI002 [I-EPI-002],competition for ligand binding to PR LBD,PR LBD,did not prevent ligand-binding
same,"inhibition of probasin luciferase activity, full-length AR with V567es",[1],showed good inhibition
same,potency relative to EPI-002,[2]; cell-based functional assays,10 times
same,inhibition of AR transcriptional activity with increasing concentrations of androgen,"[2]; increasing R1881, enzalutamide 5 μM, I-EPI-002 5 μM, EPI-002 25 μM",maintained effective inhibition
same,inhibition of AR transcriptional activity,"[2]; ~2 μM, R1881 1 nM",75%

# — article PMC4980083 (JCI insight, 2016)
